# Data as given in patent publication US20150086627A1, “DOSAGE FORMS OF HALOFUGINONE AND METHODS OF USE” (priority 2012, published 2015).
# Counter-ions that a name gives are not always drawn. Like-named read-outs stand apart in the source and are kept apart here.
# Tests used:
# [1] = Plasma pharmacokinetics of halofuginone in male beagle dogs (Example B); format: in vivo; conditions: dog
# Protocol: Five groups of five male beagle dogs (25 total dogs) were orally administered various compositions of halofuginone solutions. […] The dogs were fasted overnight prior to administration, and food was returned four hours post-administration. Plasma was drawn from each animal at the time of administration, and then at eight successive time points (0.5, 1, 2, 4, 8, 12, 24, and 48 hours post-administration).
# The plasma samples, collected from the dogs at the various time points, were assayed for halofuginone concentrations using HPLC-MS/MS (ACE Excel 2C18 AR, 50×2.1 mm column). [Cmax: maximum observed halofuginone concentration; tmax: time point at Cmax; AUC(0-t): AUC to the last non-zero concentration (t is the corresponding time); AUC(0-∞): AUC(0-∞)=AUC(0-t)+AUC(t-∞); t1/2: half-life; time taken for drug plasma concentration to fall by one-half; Vz_obs: observed volume of distribution; Cl_obs: observed clearance]
# beagle dogs = conditions: 6 Beagle dogs, oral solution 0.15 mg/kg
# Protocol: Two groups of 6 male Beagle dogs were dosed with two formulations or two routes of administration of Halofuginone hydrobromide. In a cross-over study design, one group received an oral (PO) dose at ˜0.15 mg/kg as enteric-coated (EC) tablets in a gelatin capsule and then another oral dose at 0.15 mg/kg as a solution 7 days later. The second group received a subcutaneous (SC) dose at 0.03 mg/kg as a solution and then an intravenous (IV) dose at 0.05 mg/kg as a solution. The test article was administered once for each dose level and dosage form. The animals were dosed once a week or after completing at least a 7 day washout period. The dose formulations of Halofuginone hydrobromide were EC tablets or 0.3 mg/mL solutions. The EC tablets contained 0.075 mg of Halofuginone hydrobromide. The tablets (20/dog) were loaded into a gelatin capsule prior to dosing.
# Each animal received a physical examination prior to dosing, with cage side observations for mortality and morbidity twice daily thereafter. Detailed clinical observations were performed prior to dosing and at 15 minute (min) intervals during the first 2 hours (h) postdose, at 4, 8, and 24 h postdose on dosing days. […]
# [2] = Plasma pharmacokinetics of Halofuginone hydrobromide in Beagle dogs (Example C); conditions: dog, in vivo; for half-life: t1/2
# Protocol: Blood samples were collected from the jugular, cephalic, or saphenous veins into tubes containing EDTA at the following time points: 0, 0.5, 1, 2, 4, 8, 12, 24, and 48 h postdose. Blood samples were kept on wet ice until processing. Blood samples were centrifuged at 3200 RPM for 10 min at ˜5° C. Plasma samples were directly transferred to a 96-well plate tube (1.1 mL). Plug caps were placed on the tubes. Plasma samples were stored at −20±5° C. until they were shipped for analysis.
# Statistical analysis of PK parameters for dogs treated with both enteric and oral solutions were calculated using Excel® spreadsheets. Summary statistics were derived for the following PK parameters for each dog receiving both the dog EC tablets and the oral drug as a clear solution in Group 1: • Cmax (ng/mL): Maximum Observed Concentration • tmax (h): Time Point at Cmax • AUC(0−t) (ng·h/mL): AUC to the last non-zero concentration (t is the corresponding time) • AUC(0−∞) (ng·h/mL): AUC(0-∞)=AUC(0-t)+AUC(t-∞) • t1/2(h): Half-life; time taken for drug plasma concentration to fall by one-half • % F: Bioavailability; [AUC(0-t)×*Dose IV (mg/kg)]/[AUC(0-t)IV*Dose×(mg/kg)] Paired differences for each dog were determined by subtracting the summary PK value as follows: […]
# dogs = assay: Previous study in dogs, daily oral dosing for up to 28 days; format: in vivo
# Protocol: The dose levels were selected based on the results of a previous study in dogs in which the high-dose group was dosed at 0.15 mg/kg/day for up to 28 days (this dose was tolerated for the entire course of the study).
# Plasmodium berghei = conditions: Plasmodium berghei-infected mice; cited from earlier work
# mdx mice = conditions: cited from earlier work
# cell lines = conditions: cited from earlier work
# [3] = tested on: human leiomyosarcoma tumor cells; conditions: low concentrations; cells stimulated by serum or HB-EGF; cited from earlier work
# [4] = tested on: vascular SMC and fibroblasts; conditions: cited from earlier work
# mice = conditions: mouse, in vivo, cited from earlier work
# [5] = male, beagle, in vivo, po, 0.15 mg/kg
# [6] = male, Beagle, iv, 0.05 mg/kg, Mean Conc. (plasma)
# [7] = male, Beagle, iv, 0.05 mg/kg, Sample Conc. (plasma)
# [8] = male, Beagle, po, 0.15 mg/kg, Mean Conc. (plasma)
# [9] = male, Beagle, sc, 0.03 mg/kg, Mean Conc. (plasma)
# [10] = male, Beagle, sc, 0.03 mg/kg, Sample Conc. (plasma)
smiles,measurement,setting,value
"O=C(C[C@@H]1NCCC[C@H]1O)Cn1cnc2cc(Br)c(Cl)cc2c1=O [Halofuginone hydrobromide, 7-Bromo-6-chloro-3-[3-[(2S,3R)-3-hydroxy-2-piperidinyl]-2-oxopropyl]-4-quinazolinone]",half-life,"[1]; plasma, male beagle dogs, oral 0.15 mg/kg aqueous solution, mean",889 min
same,AUC(0-inf),[1]; [5],49.1 ng·h/mL
same,AUC(0-t),[1]; [5],39.5 ng·h/mL
same,Cl_obs,[1]; [5],57.8 mL/min/kg
same,Cmax,[1]; [5],5.26 ng/mL
same,Tmax,[1]; [5],54 min
same,Vz_obs,[1]; [5],70.73 L/kg
same,animals with emesis,beagle dogs,5 of 6
same,episodes of emesis (total emetic events),beagle dogs,18
same,absolute bioavailability versus oral solution,[2],increased
same,Cmax,"[2]; male, Beagle, iv, 0.05 mg/kg",6.95 ng/mL
same,concentration at 0.083 h,[2]; [6],6.96 ng/mL
same,concentration at 0.5 h,[2]; [6],4.47 ng/mL
same,concentration at 1 h,[2]; [6],3.81 ng/mL
same,concentration at 2 h,[2]; [6],2.29 ng/mL
same,concentration at 4 h,[2]; [6],1.74 ng/mL
same,concentration at 8 h,[2]; [6],1.08 ng/mL
same,concentration at 12 h,[2]; [6],0.76 ng/mL
same,concentration at 24 h,[2]; [6],0.67 ng/mL
same,concentration at 48 h,[2]; [6],0.23 ng/mL
same,concentration at 0.083 h,[2]; [7],7.81 ng/mL
same,concentration at 0.5 h,[2]; [7],5.52 ng/mL
same,concentration at 1 h,[2]; [7],3.55 ng/mL
same,concentration at 2 h,[2]; [7],2.13 ng/mL
same,concentration at 8 h,[2]; [7],0.8 ng/mL
same,half-life,"[2]; male, Beagle, iv, 0.05 mg/kg",621 min
same,Tmax,"[2]; male, Beagle, iv, 0.05 mg/kg, tmax",4.8 min
same,concentration at 0.5 h,[2]; [8],6.41 ng/mL
same,concentration at 1 h,[2]; [8],4.97 ng/mL
same,concentration at 2 h,[2]; [8],3.68 ng/mL
same,concentration at 4 h,[2]; [8],1.87 ng/mL
same,concentration at 8 h,[2]; [8],1.38 ng/mL
same,concentration at 12 h,[2]; [8],1.14 ng/mL
same,concentration at 24 h,[2]; [8],0.53 ng/mL
same,concentration at 48 h,[2]; [8],0.2 ng/mL
same,half-life,"[2]; male, Beagle, po, 0.15 mg/kg",810 min
same,Tmax,"[2]; male, Beagle, po, 0.15 mg/kg, tmax",34.8 min
same,Sample Conc. (plasma),"[2]; male, Beagle, sc, 0.03 mg/kg, 48 h",0.12 ng/mL
same,Cmax,"[2]; male, Beagle, sc, 0.03 mg/kg",3.66 ng/mL
same,concentration at 0.5 h,[2]; [9],3.62 ng/mL
same,concentration at 1 h,[2]; [9],1.79 ng/mL
same,concentration at 2 h,[2]; [9],1.4 ng/mL
same,concentration at 4 h,[2]; [9],1 ng/mL
same,concentration at 8 h,[2]; [9],0.63 ng/mL
same,concentration at 12 h,[2]; [9],0.51 ng/mL
same,concentration at 24 h,[2]; [9],0.14 ng/mL
same,concentration at 0.5 h,[2]; [10],2.82 ng/mL
same,concentration at 1 h,[2]; [10],1.67 ng/mL
same,concentration at 48 h,[2]; [10],0.16 ng/mL
same,Tmax,"[2]; male, Beagle, sc, 0.03 mg/kg, tmax",30 min
same,Tmax,"[2]; male, beagle, po, 0.15 mg/kg",60 min
same,clinical signs of toxicity,dogs; 0.15 mg/kg/day for up to 28 days,emesis and decreased activity during the first week of dosing
same,tolerability,dogs; high-dose group 0.15 mg/kg/day for up to 28 days,tolerated
same,curative effects,Plasmodium berghei,displayed curative effects
same,parasitemias,Plasmodium berghei,reduce parasitemias to undetectable levels
same,muscle physiology / muscle regeneration,mdx mice,effective in improving muscle physiology and/or reducing the pressure on muscle regeneration
same,angiogenesis inhibition,cell lines,effective angiogenesis inhibitor
same,inhibition of DNA synthesis,[3],strong inhibitor of DNA synthesis
same,growth of vascular SMC and fibroblasts,[4],inhibits autocrine growth of vascular SMC and fibroblasts
same,gastrointestinal tract injuries,mice; 5 mg/kg,"widespread gastrointestinal tract injuries, e.g., intestinal hemorrhage"
same,gastrointestinal tract injuries,mice; sc,did not experience the same levels of gastrointestinal tract injuries
